# Laboratory results: US20050065203A1, “Method of reducing type 2 diabetes in high risk patients” (priority 2001, published 2005)
# Like-named read-outs stand apart in the source and are kept apart here.
# Columns and labels:
# [1] = system: patients without known diabetes but with vascular disease; experiment: Heart Outcomes Prevention Evaluation (HOPE) trial: new diagnosis of diabetes; format: in vivo, human; settings: for New Diabetes With Glycated Hemoglobulin ≧ 110%, ULN, RR (85%) CI) / New Diabetes With Oral Agents or Insulin, RR (85%) CI) / New Diabetes With Oral Agents or insulin and Glycated Hemoglobulin ≧ 110%, ULN, RR (85%) CI) / New Diabetes, RR (85%) CI): vs placebo
# Method: The design of the Heart Outcomes Prevention Evaluation (HOPE) trial has been described in detail in previous publications. Briefly, individuals who were 55 years or older with no evidence of left ventricular dysfunction or heart failure and who had evidence of vascular disease or who had diabetes and one other risk factor were eligible as long as they had no indication or contraindication to receiving an ACE-inhibitor. The study was conducted in 26 hospitals in 19 countries from 1994 to 1999. All patients provided written informed consent.
# Of 10576 eligible patients who participated in a run-in period during which they received 2.5 mg ramipril once daily for 1 week followed by matching placebo for 10 to 14 days, 1035 (9.8%) were excluded from randomization (3.2% for side effects, 3.7% for lack of consent). […] In the following it is primarily foccuessed on the latter group of patients. Of these patients, 5720 were randomized to receive up to 10 mg of ramipril once per day or equivalent placebo. One hundred sixty-seven patients who were randomized to receive a low dose (2.5 mg/day) of ramipril as part of the Study to Evaluate Carotid Ultrasound changes with Ramipril and Vitamin E (SECURE). Substudy results are not included. All randomized patients were also randomized to receive 400 IU of Vitamin E or placebo.
# Follow-up visits occurred at 1 month and 6 months after randomization and then every 6 months (mean follow-up of 4.5 years). At each visit, it was documented whether the diagnosis of diabetes had been made since the last visit.
# The primary outcome of this analysis is a new diagnosis of diabetes recorded on the basis of self-report. […] Hemoglobin A1c (HbA1c) levels and medications used among those diagnosed as having diabetes were also recorded. The HbA1c levels; were determined locally. Values higher than 110% of the upper limit of normal for each laboratory were considered to be biochemical confirmation of diabetes.
# Survival curves utilizing the Kaplan Meier and log-rank procedures were used to describe and compare the results in the 2 treatment groups. Because of the factorial design, all analyses were stratified for randomization to vitamin E or placebo. Subgroup analyses were conducted using tests of interaction in the Cox regression model.
# Design, Setting and Participants: The randomized, controlled Heart Outcomes Prevention Evaluation trial of 5720 patients older than 55 years without known diabetes but with vascular disease who were followed up for a mean of 4.5 years. The study included 267 hospitals in 19 countries and was conducted between 1994 and 1999.
# Intervention: Patients were randomly assigned to receive ramipril, up to 10 mg/d (n=2837), or placebo (n=2883).
# Main Outcome Measure: Diagnosis of diabetes determined from self-report at follow-up visits every 6 months, compared between the 2 groups.
# [2] = system: patients without known diabetes but with vascular disease; settings: study participants without known diabetes at randomization (N Engl J. Med. 2000); cited from earlier work
# [3] = system: people at high risk, with and without a diagnosis of diabetes; settings: cited from earlier work
# [4] = patients with diabetes in HOPE, serial annual recordings, first 2 years; cited from earlier work
# [5] = SECURE study, P=0.03, cited from earlier work
# [6] = ramipril up to 10 mg/d (n=2837), mean follow-up 4.5 years
# [7] = subgroup Body mass index >27.7 Kg/m^2
# [8] = subgroup Without microalbuminuria
compound,measurement,setting,value
CCOC(=O)[C@H](CCc1ccccc1)N[C@@H](C)C(=O)N1[C@H](C(=O)O)C[C@@H]2CCC[C@@H]21 [ramipril],"New Diabetes With Glycated Hemoglobulin ≧ 110%, ULN, No. of patients",[1]; No new MA or ON,42
same,"New Diabetes With Glycated Hemoglobulin ≧ 110%, ULN, proportion of patients (in parentheses)",[1]; No new MA or ON,1.7
same,"New Diabetes With Oral Agents or Insulin, No. of patients",[1]; No new MA or ON,45
same,"New Diabetes With Oral Agents or Insulin, proportion of patients (in parentheses)",[1]; No new MA or ON,1.8
same,"New Diabetes With Oral Agents or insulin and Glycated Hemoglobulin ≧ 110%, ULN, No. of patients",[1]; No new MA or ON,30
same,"New Diabetes With Oral Agents or insulin and Glycated Hemoglobulin ≧ 110%, ULN, proportion of patients (in parentheses)",[1]; No new MA or ON,1.2
same,"New Diabetes, No. of patients",[1]; No new MA or ON,82
same,"New Diabetes, proportion of patients (in parentheses)",[1]; No new MA or ON,3.3
same,"New Diabetes With Glycated Hemoglobulin ≧ 110%, ULN, RR (85%) CI)",[1]; No new MA or ON,0.66 (0.48-0.98)
same,"New Diabetes With Oral Agents or Insulin, RR (85%) CI)",[1]; No new MA or ON,0.56 (0.39-0.81)
same,"New Diabetes With Oral Agents or insulin and Glycated Hemoglobulin ≧ 110%, ULN, RR (85%) CI)",[1]; No new MA or ON,0.60 (0.38-0.94)
same,"New Diabetes, RR (85%) CI)",[1]; No new MA or ON,0.67 (0.51-0.89)
same,"New Diabetes With Glycated Hemoglobulin ≧ 110%, ULN, No. of patients",[1]; No primary event,45
same,"New Diabetes With Glycated Hemoglobulin ≧ 110%, ULN, proportion of patients (in parentheses)",[1]; No primary event,1.8
same,"New Diabetes With Oral Agents or Insulin, No. of patients",[1]; No primary event,54
same,"New Diabetes With Oral Agents or Insulin, proportion of patients (in parentheses)",[1]; No primary event,2.2
same,"New Diabetes With Oral Agents or insulin and Glycated Hemoglobulin ≧ 110%, ULN, No. of patients",[1]; No primary event,32
same,"New Diabetes With Oral Agents or insulin and Glycated Hemoglobulin ≧ 110%, ULN, proportion of patients (in parentheses)",[1]; No primary event,1.3
same,"New Diabetes, No. of patients",[1]; No primary event,93
same,"New Diabetes, proportion of patients (in parentheses)",[1]; No primary event,3.8
same,"New Diabetes With Oral Agents or Insulin, RR (85%) CI)",[1]; No primary event,0.58 (0.42-0.82)
same,"New Diabetes With Oral Agents or insulin and Glycated Hemoglobulin ≧ 110%, ULN, RR (85%) CI)",[1]; No primary event,0.51 (0.33-0.78)
same,"New Diabetes, RR (85%) CI)",[1]; No primary event,0.69 (0.53-0.91)
same,"New Diabetes With Glycated Hemoglobulin ≧ 110%, ULN, No. of patients",[1]; With new MA or ON,10
same,"New Diabetes With Glycated Hemoglobulin ≧ 110%, ULN, proportion of patients (in parentheses)",[1]; With new MA or ON,2.8
same,"New Diabetes With Oral Agents or insulin and Glycated Hemoglobulin ≧ 110%, ULN, No. of patients",[1]; With new MA or ON,6
same,"New Diabetes With Oral Agents or insulin and Glycated Hemoglobulin ≧ 110%, ULN, proportion of patients (in parentheses)",[1]; With new MA or ON,1.7
same,"New Diabetes, No. of patients",[1]; With new MA or ON,20
same,"New Diabetes, proportion of patients (in parentheses)",[1]; With new MA or ON,5.8
same,"New Diabetes With Glycated Hemoglobulin ≧ 110%, ULN, RR (85%) CI)",[1]; With new MA or ON,0.47 (0.23-0.98)
same,"New Diabetes With Oral Agents or insulin and Glycated Hemoglobulin ≧ 110%, ULN, RR (85%) CI)",[1]; With new MA or ON,0.32 (0.13-0.79)
same,"New Diabetes, RR (85%) CI)",[1]; With new MA or ON,0.65 (0.38-1.12)
same,"New Diabetes With Oral Agents or Insulin, No. of patients",[1]; With new NA or ON,14
same,"New Diabetes With Oral Agents or Insulin, proportion of patients (in parentheses)",[1]; With new NA or ON,3.9
same,"New Diabetes With Oral Agents or Insulin, RR (85%) CI)",[1]; With new NA or ON,0.61 (0.32-1.16)
same,"New Diabetes With Glycated Hemoglobulin ≧ 110%, ULN, No. of patients",[1]; With primary event,7
same,"New Diabetes With Glycated Hemoglobulin ≧ 110%, ULN, proportion of patients (in parentheses)",[1]; With primary event,1.9
same,"New Diabetes With Oral Agents or Insulin, No. of patients",[1]; With primary event,5
same,"New Diabetes With Oral Agents or Insulin, proportion of patients (in parentheses)",[1]; With primary event,1.3
same,"New Diabetes With Oral Agents or insulin and Glycated Hemoglobulin ≧ 110%, ULN, No. of patients",[1]; With primary event,4
same,"New Diabetes With Oral Agents or insulin and Glycated Hemoglobulin ≧ 110%, ULN, proportion of patients (in parentheses)",[1]; With primary event,1.1
same,"New Diabetes, No. of patients",[1]; With primary event,9
same,"New Diabetes, proportion of patients (in parentheses)",[1]; With primary event,2.4
same,"New Diabetes With Glycated Hemoglobulin ≧ 110%, ULN, RR (85%) CI)",[1]; With primary event,0.59 (0.24-1.43)
same,"New Diabetes With Oral Agents or Insulin, RR (85%) CI)",[1]; With primary event,0.42 (0.15-1.14)
same,"New Diabetes With Oral Agents or insulin and Glycated Hemoglobulin ≧ 110%, ULN, RR (85%) CI)",[1]; With primary event,0.54 (0.17-1.72)
same,"New Diabetes, RR (85%) CI)",[1]; With primary event,0.48 (0.21-0.98)
same,"patients diagnosed to have diabetes and glycated hemoglobin of 110% or more above upper limit of normal, %",[1]; ramipril group,1.8%
same,"patients with new diabetes meeting all criteria, %",[1]; ramipril group,1.3%
same,"patients with new diabetes receiving an oral glucose lowering agent or insulin, %",[1]; ramipril group,2.1%
same,"individuals who reported a new diagnosis of diabetes, %",[1]; [6],3.6%
same,"individuals who reported a new diagnosis of diabetes, No.",[1]; [6],102 and One hundred and two
same,relative risk of diabetes diagnosis with glycated hemoglobin of 110% or more of ULN,[1]; ramipril vs placebo,0.60
same,relative risk of new diabetes meeting all criteria,[1]; ramipril vs placebo,0.51
same,relative risk of new diabetes with oral glucose lowering agent or insulin,[1]; ramipril vs placebo,0.56
same,relative risk of new diagnosis of diabetes,[1]; ramipril vs placebo,0.66
same,No. With Diabetes,[1]; subgroup,39
same,(%) With Diabetes,[1]; [7],(5.8) %
same,No. With Diabetes,[1]; [7],63
same,(%) With Diabetes,[1]; subgroup Body mass index ≦7.7 Kg/m^2,(2.2) %
same,(%) With Diabetes,[1]; subgroup Not taking diuretics,(3.4) %
same,No. With Diabetes,[1]; subgroup Not taking diuretics,84
same,(%) With Diabetes,[1]; subgroup Not taking β-blocker,(3.3) %
same,No. With Diabetes,[1]; subgroup Not taking β-blocker,50
same,(%) With Diabetes,[1]; subgroup Taking diuretics,(5.0) %
same,No. With Diabetes,[1]; subgroup Taking diuretics,18
same,(%) With Diabetes,[1]; subgroup Taking β-blocker,(4.0) %
same,No. With Diabetes,[1]; subgroup Taking β-blocker,52
same,(%) With Diabetes,[1]; subgroup Waist-hip ratio >0.93,(4.4) %
same,No. With Diabetes,[1]; subgroup Waist-hip ratio >0.93,63
same,(%) With Diabetes,[1]; subgroup Waist-hip ratio ≦0.93,(2.8) %
same,No. With Diabetes,[1]; subgroup Waist-hip ratio ≦0.93,39
same,(%) With Diabetes,[1]; subgroup With hypertension,(4.2) %
same,No. With Diabetes,[1]; subgroup With hypertension,49
same,(%) With Diabetes,[1]; subgroup With microalbuminuria,(4.2) %
same,No. With Diabetes,[1]; subgroup With microalbuminuria,17
same,(%) With Diabetes,[1]; subgroup Without hypertension,(3.2) %
same,No. With Diabetes,[1]; subgroup Without hypertension,53
same,(%) With Diabetes,[1]; [8],(3.5) %
same,No. With Diabetes,[1]; [8],85
same,relative risk for diabetes,"[1]; subgroup who never took diuretics or β-blockers during the study, ramipril vs placebo",0.62
same,development of diabetes,[2],reduced
same,"myocardial infarction, strokes, death, and the development of diabetic nephropathy",[3],reduces
same,"reduction in HbA10 levels, absolute difference",[4],0.2%
same,increase in fasting glucose,[5]; placebo 0.41 mmols,0.25 mmols
same,increase in fasting glucose,[5]; placebo 15.8 mg/dL,9.6 mg/dL
Vitamin E,effect on diabetes,[1]; 400 IU Vitamin E vs placebo,did not differ
